Target: T1, HPK1 (Homo sapiens, UniProt Q92918)
T1 construct: A HiBiT tag was introduced by CRISPR on the N terminus of HPK1 in Jurkat cells; host or cells: Jurkat cells (ATCC TIB-152), monoclonal line with CRISPR knock-in of HiBiT at the endogenous HPK1 locus
Assay: HPK1 Cellular HiBit Degradation Assay
Type: cell-based
Conditions: HiBiT HPK1 Jurkat cells, 24 hrs; for DC50: concentration at which 50% of HPK1 was remaining, read-out: DC50 Category; for Dmax: Jurkat, maximum degradation vs DMSO vehicle control, read-out: Dmax Category
Description: HPK1 Cellular HiBit Degradation Assay
A HiBiT tag was introduced by CRISPR on the N terminus of HPK1 in Jurkat cells (ATCC® TIB-152) to allow quantitation of HPK1 protein levels in a monoclonal human cell line. Cells were plated at 1×10^6 cells/mL, 30 uL/well (3×10^4 cells/well) in complete RPMI 1640 (10% heat inactivated FBS, 1% L-glutamine) in 384-well assay plates (Corning, cat. no. 3570). HPK1 chimeric targeting molecules (CTMs) were added in an 11 point dilution series (11-point, 3.16-fold) with a final assay concentration range of 10 uM to 0.1 nM. The parental Jurkat cell line, with no HiBiT insertion, was included in the assay as a background control. Cell treated with a DMSO vehicle control was used to determine the maximum signal defining 100% HPK1 in the cell. Cells were incubated for 24 hrs at 37° C./5% CO2. Following incubation, 30 uL of complete Nano-Glo HiBiT Lytic Detection Reagent (Promega cat. no. N3040) was added. Cells were incubated for 10 min at room temperature and luminescence was read on an EnVision plate reader (Perkin Elmer, 0.1 sec per well). Viability was assessed in the same plate using Cell Titer Fluor (Promega) and read on an EnVision plate reader to ensure results were not the effect of cytotoxicity. Percent HPK1 remaining per sample was calculated as follows:
[formula] % HPK1 remaining values were plotted as a function of compound concentration and curves were fit using the Prism (GraphPad) equation “log(inhibitor) vs response−Variable slope (four parameters)”. Dmax values were calculated by identifying the lowest % remaining and subtracting from 100. DC50 values were determined by extrapolating from the curve the concentration at which 50% of HPK1 was remaining based on the DMSO control.
HiBiT HPK1 Jurkat cell lines were used to evaluate the total protein levels of HPK1 in a robust human cellular high throughput format. The level of HPK1 remaining following treatment with HPK1 CTMs is reported as Dmax (maximum degradation) achieved at 24 hours when compared to vehicle treated controls. […] These decreases were not a result of cytotoxicity measured by a viability assessment.

T1 sequence (Q92918 whole entry): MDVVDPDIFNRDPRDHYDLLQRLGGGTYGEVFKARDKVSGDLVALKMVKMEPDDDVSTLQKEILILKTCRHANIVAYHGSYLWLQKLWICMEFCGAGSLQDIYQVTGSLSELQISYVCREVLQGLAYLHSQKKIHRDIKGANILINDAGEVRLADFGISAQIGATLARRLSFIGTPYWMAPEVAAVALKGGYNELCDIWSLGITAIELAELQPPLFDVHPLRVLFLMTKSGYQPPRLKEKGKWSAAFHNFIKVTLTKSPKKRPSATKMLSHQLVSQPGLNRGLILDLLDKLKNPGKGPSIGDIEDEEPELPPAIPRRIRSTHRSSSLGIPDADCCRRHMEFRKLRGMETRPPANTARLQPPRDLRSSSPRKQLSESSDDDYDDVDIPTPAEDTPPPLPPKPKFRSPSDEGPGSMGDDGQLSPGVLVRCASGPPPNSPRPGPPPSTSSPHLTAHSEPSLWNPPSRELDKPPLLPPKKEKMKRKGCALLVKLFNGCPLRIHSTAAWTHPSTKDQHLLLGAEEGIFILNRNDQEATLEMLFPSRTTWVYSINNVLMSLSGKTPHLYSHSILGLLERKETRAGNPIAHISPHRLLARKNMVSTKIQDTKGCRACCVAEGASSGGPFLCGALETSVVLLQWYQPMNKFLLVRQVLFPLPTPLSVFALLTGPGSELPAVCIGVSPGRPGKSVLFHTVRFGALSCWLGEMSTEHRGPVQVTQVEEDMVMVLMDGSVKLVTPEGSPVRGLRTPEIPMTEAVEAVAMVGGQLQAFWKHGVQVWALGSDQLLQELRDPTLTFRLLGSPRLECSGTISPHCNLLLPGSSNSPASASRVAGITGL

| SMILES | DC50 | Dmax |
| --- | --- | --- |
| CC(C)n1cnc2cc(-c3ccc4c(c3)N([C@H]3C[C@@H](N5CCCCC5)C3)C(=O)C43CCN(C(=O)[C@H]4CCCN(C(=O)CC5CCN(c6ccc(C7CCC(=O)NC7=O)cn6)CC5)C4)CC3)nc(NC3CC3)c21 (mixture of isomers) [Example 231, (3RS)-3-[6-(4-{2-[(3S)-3-({6-[4-(cyclopropylamino)-3-(propan-2-yl)-3H-imidazo[4,5-c]pyridin-6-yl]-2-oxo-1-[(1S,3S)-3-(piperidin-1-yl)cyclobutyl]-1,2-dihydrospiro[indole-3,4′-piperidin]-1′-yl}carbonyl)piperidin-1-yl]-2-oxoethyl}piperidin-1-yl)pyridin-3-yl]piperidine-2,6-dione] | 0.1 to 0.5 µM | 50 to 70% |
| CC(C)n1cnc2cc(-c3ccc4c(c3)N([C@H]3C[C@@H](N5CCCCC5)C3)C(=O)C43CCN(C(=O)C4(CF)CCN(C(=O)C5CCN(c6ccc(C7CCC(=O)NC7=O)cn6)CC5)CC4)CC3)nc(NC3CC3)c21 (mixture of isomers) [Example 278] | < 0.1 µM | > 85% |
| CC(C)n1cnc2cc(-c3ccc4c(c3)N([C@H]3C[C@@H](N5CCCCC5)C3)C(=O)C43CCN(C(=O)C4(C)CCN(C(=O)CC5CCN(c6ccc(C7CCC(=O)NC7=O)cn6)CC5)CC4)CC3)nc(NC3CC3)c21 (mixture of isomers) [Example 221, (3RS)-3-[6-(4-{2-[4-({6-[4-(cyclopropylamino)-3-(propan-2-yl)-3H-imidazo[4,5-c]pyridin-6-yl]-2-oxo-1-[(1S,3S)-3-(piperidin-1-yl)cyclobutyl]-1,2-dihydrospiro[indole-3,4′-piperidin]-1′-yl}carbonyl)-4-methylpiperidin-1-yl]-2-oxoethyl}piperidin-1-yl)pyridin-3-yl]piperidine-2,6-dione] | < 0.1 µM | 70 to 85% |
| CC(C)n1cnc2cc(-c3ccc4c(c3)N([C@H]3C[C@@H](N5CCCCC5)C3)C(=O)C43CCN(C(=O)C4(C)CCN(C(=O)N5CC6(C5)CN(c5ccc(C7CCC(=O)NC7=O)cn5)C6)CC4)CC3)nc(NC3CC3)c21 (stereo partly drawn) [Example 184, 3-(6-{6-[4-({6-[4-(cyclopropylamino)-3-(propan-2-yl)-3H-imidazo[4,5-c]pyridin-6-yl]-2-oxo-1-[(1S,3S)-3-(piperidin-1-yl)cyclobutyl]-1,2-dihydrospiro[indole-3,4′-piperidine]-1′-yl}carbonyl)-4-methylpiperidine-1-carbonyl]-2,6-diazaspiro[3.3]heptan-2-yl}pyridin-3-yl)piperidine-2,6-dione] | 0.1 to 0.5 µM | 50 to 70% |
| Cc1cc(C(=O)N2CCN(c3ccc4c(c3)C(=O)N(C3CCC(=O)NC3=O)C4=O)CC2)ccc1C(=O)N1CCC2(CC1)C(=O)N([C@H]1C[C@@H](N3CCCCC3)C1)c1cc(-c3cc4ncn(C(C)C)c4c(Nc4ccccc4F)n3)ccc12 (mixture of isomers) [Example 124, 2-[(3RS)-2,6-dioxopiperidin-3-yl]-5-(4-{4-[(6-{4-[(2-fluorophenyl)amino]-3-(propan-2-yl)-3H-imidazo[4,5-c]pyridin-6-yl}-2-oxo-1-[(1S,3S)-3-(piperidin-1-yl)cyclobutyl]-1,2-dihydrospiro[indole-3,4′-piperidin]-1′-yl)carbonyl]-3-methylbenzoyl}piperazin-1-yl)-2,3-dihydro-1H-isoindole-1,3-dione] | 0.1 to 0.5 µM | 70 to 85% |

The remaining lines, values ahead:

| DC50 | Dmax | SMILES |
| --- | --- | --- |
| < 0.1 µM | > 85% | CC(C)n1cnc2cc(-c3ccc4c(c3)N([C@H]3C[C@@H](N5CCCCC5)C3)C(=O)C43CCN(C(=O)[C@H]4CN(C(=O)C5CCN(c6ccc(C7CCC(=O)NC7=O)cn6)CC5)C[C@H]4C)CC3)nc(NC3CC3)c21 (mixture of isomers) [Example 248, (3RS)-3-(6-{4-[(3R,4S)-3-({6-[4-(cyclopropylamino)-3-(propan-2-yl)-3H-imidazo[4,5-c]pyridin-6-yl]-2-oxo-1-[(1S,3S)-3-(piperidin-1-yl)cyclobutyl]-1,2-dihydrospiro[indole-3,4′-piperidin]-1′-yl}carbonyl)-4-methylpyrrolidine-1-carbonyl]piperidin-1-yl}pyridin-3-yl)piperidine-2,6-dione] |
| < 0.1 µM | 70 to 85% | CC(C)n1cnc2cc(-c3ccc4c(c3)N([C@H]3C[C@@H](N5CCCCC5)C3)C(=O)C43CCN(C(=O)C4(C)CCN(C(=O)C5CCN(c6ccc(C7CCC(=O)NC7=O)cc6)CC5)CC4)CC3)nc(Nc3ccncc3F)c21 (mixture of isomers) [Example 112, (3RS)-3-[4-(4-{4-[(6-{4-[(3-fluoropyridin-4-yl)amino]-3-(propan-2-yl)-3H-imidazo[4,5-c]pyridin-6-yl}-2-oxo-1-[(1S,3S)-3-(piperidin-1-yl)cyclobutyl]-1,2-dihydrospiro[indole-3,4′-piperidin]-1′-yl)carbonyl]-4-methylpiperidine-1-carbonyl}piperidin-1-yl)phenyl]piperidine-2,6-dione] |
| 0.1 to 0.5 µM | 70 to 85% | CC(C)n1cnc2cc(-c3ccc4c(c3)N([C@H]3C[C@@H](N5CCCCC5)C3)C(=O)C43CCN(C(=O)C4CCN(C(=O)[C@H]5CC[C@H](Nc6cccc7c6C(=O)N(C6CCC(=O)NC6=O)C7=O)CC5)CC4)CC3)nc(Nc3ccccc3F)c21 (mixture of isomers) [Example 57, 2-[(3RS)-2,6-dioxopiperidin-3-yl]-4-{[(1R,4R)-4-{4-[(6-{4-[(2-fluorophenyl)amino]-3-(propan-2-yl)-3H-imidazo[4,5-c]pyridin-6-yl}-2-oxo-1-[(1S,3S)-3-(piperidin-1-yl)cyclobutyl]-1,2-dihydrospiro[indole-3,4′-piperidin]-1′-yl)carbonyl]piperidine-1-carbonyl}cyclohexyl]amino}-2,3-dihydro-1H-isoindole-1,3-dione] |
| < 0.1 µM | 50 to 70% | CC(C)n1cnc2cc(-c3ccc4c(c3)N([C@H]3C[C@@H](N5CCCCC5)C3)C(=O)C43CCN(C(=O)[C@]45C[C@H]4CN(C(=O)C4CCN(c6ccc(C7CCC(=O)NC7=O)cc6)CC4)C5)CC3)nc(NC3CC3)c21 (mixture of isomers) [Example 263, (3RS)-3-(4-{4-[(1R,5R)-1-({6-[4-(cyclopropylamino)-3-(propan-2-yl)-3H-imidazo[4,5-c]pyridin-6-yl]-2-oxo-1-[(1S,3S)-3-(piperidin-1-yl)cyclobutyl]-1,2-dihydrospiro[indole-3,4′-piperidin]-1′-yl}carbonyl)-3-azabicyclo[3.1.0]hexane-3-carbonyl]piperidin-1-yl}phenyl)piperidine-2,6-dione] |
| 0.1 to 0.5 µM | 70 to 85% | CC(C)n1cnc2cc(-c3ccc4c(c3)N([C@H]3C[C@@H](N5CCCCC5)C3)C(=O)C43CCN(C(=O)[C@@H]4CCN(C(=O)[C@H]5CC[C@H](Oc6ccc(C7CCC(=O)NC7=O)cn6)CC5)C4)CC3)nc(Nc3ccncc3F)c21 (mixture of isomers) [Example 18, (3RS)-3-(6-{[(1R,4R)-4-[(3R)-3-[(6-{4-[(3-fluoropyridin-4-yl)amino]-3-(propan-2-yl)-3H-imidazo[4,5-c]pyridin-6-yl}-2-oxo-1-[(1S,3S)-3-(piperidin-1-yl)cyclobutyl]-1,2-dihydrospiro[indole-3,4′-piperidin]-1′-yl)carbonyl]pyrrolidine-1-carbonyl]cyclohexyl]oxy}pyridin-3-yl)piperidine-2,6-dione] |
| < 0.1 µM | 70 to 85% | CC(C)n1cnc2cc(-c3ccc4c(c3)N([C@H]3C[C@@H](N5CCCCC5)C3)C(=O)C43CCN(C(=O)C4(C)CCN(C(=O)[C@H]5CC[C@H](Oc6ccc(C7CCC(=O)NC7=O)cc6)CC5)CC4)CC3)nc(NC3CC3)c21 (mixture of isomers) [Example 101, (3RS)-3-(4-{[(1R,4R)-4-[4-({6-[4-(cyclopropylamino)-3-(propan-2-yl)-3H-imidazo[4,5-c]pyridin-6-yl]-2-oxo-1-[(1S,3S)-3-(piperidin-1-yl)cyclobutyl]-1,2-dihydrospiro[indole-3,4′-piperidin]-1′-yl}carbonyl)-4-methylpiperidine-1-carbonyl]cyclohexyl]oxy}phenyl)piperidine-2,6-dione] |
| < 0.1 µM | 50 to 70% | CC(C)n1cnc2cc(-c3ccc4c(c3)N([C@H]3C[C@@H](N5CCCCC5)C3)C(=O)C43CCN(C(=O)[C@@H]4CCN(C(=O)[C@H]5CC[C@H](Nc6cccc7c6n(C)c(=O)n7C6CCC(=O)NC6=O)CC5)C4)CC3)nc(Nc3ccccc3F)c21 (mixture of isomers) [Example 144, (3RS)-3-(3-methyl-2-oxo-4-{[(1R,4R)-4-[(3R)-3-[(6-{4-[(2-fluorophenyl)amino]-3-(propan-2-yl)-3H-imidazo[4,5-c]pyridin-6-yl}-2-oxo-1-[(1S,3S)-3-(piperidin-1-yl)cyclobutyl]-1,2-dihydrospiro[indole-3,4′-piperidin]-1′-yl)carbonyl]pyrrolidine-1-carbonyl]cyclohexyl]amino}-2,3-dihydro-1H-1,3-benzodiazol-1-yl)piperidine-2,6-dione] |

— patent publication US12091426B2, “Bifunctional degraders of hematopoietic progenitor kinase and therapeutic uses thereof” (Nurix Therapeutics, Inc., priority 2021, dated 2024)
